{"source": "patent US8501239B2", "about": "(priority 2005, dated 2013)", "key": {"rat brain": {"system": "rat brain", "conditions": "model of focal ischemia-reperfusion injury in the rat brain; cited from earlier work"}, "humans": {"system": "humans", "conditions": "cited from earlier work"}, "[1]": {"system": "Adult Sprague-Dawley rats", "type": "in vivo, rat"}, "contusion SCI": {"system": "contusion SCI", "assay": "Tissue sparing following moderate contusion SCI, T10 lesion epicenter", "type": "in vivo", "conditions": "5 mg/kg, 15 mins post-injury, 48 hours after SCI, p<0.05", "experimental": "Bar graphs representing the extent of tissue sparing measured through cross-sections of the T10 segment injury epicenters 48 hours after a moderate (150 kydn) contusion SCI. […] Bars represent group means, SEM (n=5-6/group). Using an unpaired t-test, * indicates p<0.05 compared to vehicle-treated groups."}}, "note": "Read-outs that look alike come from different tables or passages of the source.", "data": [{"compound": "O=[N+]([O-])c1ccc(O)c([N+](=O)[O-])c1", "note": "[2,4-DNP, 2,4-dinitrophenol]", "values": [{"measurement": "reduction of infarct volume", "setting": "rat brain", "result": "approximately 40%"}, {"measurement": "weight loss as a function of dose", "setting": "humans; FIG. 1 left panel, regardless of diet or lifestyle", "result": "very linear increase in weigh loss"}, {"measurement": "metabolism as a function of dosage", "setting": "humans; FIG. 1 right panel", "result": "linear increase in metabolism"}, {"measurement": "tissue sparing compared to vehicle-treated animals", "setting": "[1]; rat, in vivo", "result": "significantly increased tissue sparing"}, {"measurement": "cross-sectional area of tissue preservation at lesion epicenter", "setting": "contusion SCI; vs vehicle (DMSO)", "result": "significantly greater cross-sectional area of tissue preservation"}, {"measurement": "percentage of tissue sparing at the lesion epicenters", "setting": "contusion SCI; vs vehicle controls", "result": "significantly higher percentage of tissue sparing"}]}, {"compound": "N#CC(C#N)=NNc1ccc(OC(F)(F)F)cc1", "note": "[FCCP, carbonyl cyanide 4-trifluoromethoxy phenylhydrazone]", "values": [{"measurement": "tissue sparing compared to vehicle-treated animals", "setting": "[1]; TBI rats, dosed 5 min post-injury (5 mg/kg 2,4-DNP, 2.5 mg/kg FCCP, 6.2 mg/kg), 15 days post-injury, p<0.01", "result": "significantly increased tissue sparing"}]}]}
